# Entries after “also recorded” stand apart in the source; their conditions may differ. Read-outs that look alike come from different tables or passages of the source. Positions of bridges follow the written chain, without caps; N, C: chain ends. No end group written: not given here. rhodamine = not defined here
# How the values were obtained:
# PMNs [1] = experiment: Time-lapse intracellular Ca2+ imaging (Fura-2), with SOC/ARC blockers and iPLA2/PLA2 inhibitors; type: cell-based, human; settings: for Ca2+ influx induced by CaM antagonists: 30 µM W7 or 1 µM CMZ
# iPLA2 = iPLA2 activity assay (modified cPLA2 assay kit); type: biochemical, human; settings: 20 µM CHR, 20 µM CAT, 1 µM CMZ or 50 µM W7, 30 min at 37°C; absorbance 405 nm per mg protein; two experiments in triplicate
# Protocol: C) iPLA2 activity assay: Stimulation of iPLA2 activity after treatment by 20 µM CHR or 20 µM CAT for 30 min at 37°C and comparison with the effects of two CaM-binding factors (1 µM CMZ, 50 µM W7) and one iPLA2 inhibitor (25 µM BEL). Activity of iPLA2 is expressed as the absorbance (Abs/mg of protein) at λ405 nm.
# PMNs (3.10^8) were collected, sonicated 3 times for 10 s with a 15 s break between cycles, and centrifuged at 15,000× g for 20 min at 4°C. The supernatant was removed and kept on ice. After determination of the protein concentration (Bradford assay), iPLA2 activity measurement was obtained in presence of different peptide concentrations using the cPLA2 assay kit, according to the modified method previously reported (cPLA2 assay kit, Caymen chemical), [36]. Results were from two similar experiments, each performed in triplicates.
# SOCs = test system: SOCs; set-up: method as in PMID 15280576, PMID 15951181, PMID 17003039; settings: ref [42]–[44]; cited from earlier work
# pancreatic beta-cells = settings: ref [2]; cited from earlier work
# Text: Chromogranin A (CgA) is a well-studied member of the chromogranin/secretogranin family, present in secretory cells of the nervous, endocrine and immune systems. CgA was the first chromogranin to be characterized as an acidic protein co-stored and co-released with the catecholamine hormones from the chromaffin cells of the adrenal medulla. […] Numerous endogenous cl ...
# human PMNs = experiment: Flow cytometry, Ca2+ influx in Fluo-3-loaded PMNs; type: cell-based; settings: for Ca2+ influx: human PMNs, Fluo-3, 20 µM peptide (or tryptic digest of 20 µM CAT/CHR), presence of extracellular Ca2+ (1 mM; 1.1 mM CaCl2 at t = 620 s), at least triplicates
# PMNs [2] = experiment: Confocal microscopy, uptake of rhodamine-labelled peptides into PMNs; type: cell-based, human; settings: 20 µM rhodamine-labelled peptide, 2 min, PBS pH 7.4, room temperature, confocal microscopy after paraformaldehyde fixation
# Protocol: PMNs (1.10^6/mL) were incubated 2 min at room temperature (RT) with rhodamine-labelled peptides (20 µM) in Phosphate Buffered Saline consisting of 10.5 mM KH2PO4, 30 mM Na2HPO4, 0.154 M NaCl, pH 7.4, washed and subsequently centrifuged by cytospins of 1–2.10^5 isolated PMNs onto glass slides (300 rpm, 10 min, RT). Cytospins were fixed with 4% (v/v) paraformaldehyde in PBS at RT for 20 min, then incubated with Draq-5 (dilution1∶500, Biostatus Limited., Leicestershire, UK) for 15 min. Stained cells were monitored with a Zeiss LSM 510 laser scanning microscope (Zeiss, Iena, Germany) equipped with a Planapo oil immersion objective (×63, numerical aperture 1.4).
# PMNs [3] = experiment: HPLC and NanoLC-MS/MS proteomic analysis of PMN secretions induced by CHR and CAT; settings: trypsin, protein threshold 1 peptide score > 52 or at least 2 peptides with score >20
# calmodulin (CaM) = experiment: Surface Plasmon Resonance, CaM binding to immobilized peptides; settings: pH 6.5
# Protocol: Figure 5 Interaction of CHR and CAT with calmodulin (CaM). A) Fluorescence confocal microscopy of PMNs after incubation during 120 s with 20 µM rhodamine-labeled peptides (Rho-CHR or Rho-CAT). Control peptide: 20 µM rhodamine labeled Hippocampal Cholinergic Neurostimulating Peptide (Rho-HCNP). The PMNs nuclei were labeled with Draq-5. B) Alignment of the CHR and CAT sequences with two CaM binding motifs 1-8-14 B and 1-5-10. The alignment has been obtained manually so that hydrophobic residues occupy invariant positions shown with boldface letters. The net positive charge is also indicated. C) (1) Interactions between CaM, CAT and CHR by Surface Plasmon Resonance (SPR) Peptides were immobilized on a CM5 Biacore chip using amine-coupling chemistry. CaM (5 µM) was added at arrow and allowed to stabilize for 10 min. Dissociation by washing was recorded for the following 10 min. All measurements were performed at 20°C. The resulting sensorgrams were analyzed using BIAevaluation Software. (2) Calmodulin-Affinity Chromatography of CHR and CAT. The retained and eluted peptides were immunodetected by dot blot with anti-CHR (monoclonal anti-CgA47–68) and anti-CAT (polyclonal anti-CgA344–364). […]
# Experiments were conducted on a Biacore 3000™ (GE Healthcare) and peptides were immobilized on a CM5 Biacore chip using amine-coupling. […] Sensorgrams were analyzed by using BIAevaluation Software.
molecule,measurement,setting,value
"Clc1ccc(C(c2ccc(Cl)cc2)n2cc[n+](CC(OCc3ccc(Cl)cc3Cl)c3ccc(Cl)cc3Cl)c2)cc1 (stereo not shown) [CMZ, calmidazolium]",Ca2+ influx induced by CaM antagonists,"PMNs [1]; PMNs, Fura-2, 37°C",induced longer lasting rises in influx
same,stimulation of iPLA2 enzymatic activity in PMNs,iPLA2,stimulated
same,direct activation of SOCs,SOCs,may directly activate SOCs without the release of intracellular Ca^2+ stores
"Pancreastatin (AAPGWPEDGAGKMGAEEAKPPEGKGEWAHSRQEEEEMARAPQVLFRG; Pancreastatin; UniProt P05059 266-312, looked up) [CgA-derived peptide (bCGA248–293)]",effect on glucose-evoked insulin secretion,pancreatic beta-cells,able to inhibit the glucose-evoked insulin secretion from pancreatic beta-cells
"[Cl][Gd]([Cl])[Cl] [Gd^3+, gadolinium chloride]",inhibition of AA-induced Ca2+ influx,PMNs [1],inhibited by gadolinium chloride (Gd^3+)
"rhodamine-labeled Hippocampal Cholinergic Neurostimulating Peptide (HCNP): control peptide, rhodamine-labeled Hippocampal Cholinergic Neurostimulating Peptide (HCNP) (rhodamine-PVDLSKWSGPL; reading uncertain; UniProt P30086 2-12, looked up)",Ca2+ influx induced by labelled control peptide,"human PMNs; PMNs, data not shown, method and concentration not stated",unable to induce Ca^2+ influx into PMNs
same,detection in PMN cytoplasm (uptake),PMNs [2],not detected in the cytoplasm
"NSPMNKGDTEVMK [CgA4–16, peptide derived from the N-terminal CgA domain (…)]",Ca2+ influx,human PMNs,failed to affect the Ca^2+ influx
"O=C1O/C(=C/Br)CCC1c1cccc2ccccc12 (stereo not shown) [BEL, Bromoenol lactone]",inhibition of CAT-induced Ca2+ entry,"PMNs [1]; PMNs, Fura-2, 20 µM CAT, 2.5 mM CaCl2, 100 µM 2-APB (2 min), 25 µM BEL (30 min) or 10 µM BPB (10 min) before peptide",abolished the transient Ca^2+ influx
same,inhibition of CHR-induced Ca2+ entry,"PMNs [1]; PMNs, Fura-2, 20 µM CHR, 2.5 mM CaCl2, 100 µM 2-APB (2 min), 25 µM BEL (30 min) or 10 µM BPB (10 min) before peptide",abolished the transient Ca^2+ influx
same,suppression of CMZ-induced Ca2+ influx,"PMNs [1]; PMNs, Fura-2, 37°C, 1 µM CMZ, 25 µM BEL (30 min), 10 µM BPB (10 min) or 100 µM 2-APB (2 min) before",significantly suppressed
same,suppression of W7-induced Ca2+ influx,"PMNs [1]; PMNs, Fura-2, 37°C, 30 µM W7, 25 µM BEL (30 min), 10 µM BPB (10 min) or 100 µM 2-APB (2 min) before",significantly suppressed
"CCCCC/C=C\C/C=C\C/C=C\C/C=C\CCCC(=O)O [AA, Arachidonic Acid]",Ca2+ influx induced by AA,"PMNs [1]; PMNs, Fura-2, 50 µM AA, 2.5 mM CaCl2",calcium influx induced by 50 µM AA
CIVEVISDTLSKPSPMPVSKEC (disulfide 1-22 (inferred)) [CgA17–40],Ca2+ influx,human PMNs,failed to affect the Ca^2+ influx
"rhodamine-labeled CAT: CAT conjugated with 5(6)-carboxytetramethyl rhodamine at the N-terminal extremity ({5(6)‑carboxytetramethylrhodamine}-SSMKLSFRARAYGFRGPGPQL; UniProt P10645 370-390, looked up)",detection in PMN cytoplasm (uptake),PMNs [2],detected in the cytoplasm
"NCCCCCCNS(=O)(=O)c1cccc2c(Cl)cccc12 [W7, N-(6-aminohexyl)-5-chloro-l-naphthalenesulfonamide]",Ca2+ influx induced by CaM antagonists,"PMNs [1]; PMNs, Fura-2, 37°C",induced longer lasting rises in influx
same,stimulation of iPLA2 enzymatic activity in PMNs,iPLA2,stimulated
"NCCOB(c1ccccc1)c1ccccc1 [2-APB, 2-aminoethyl diphenylborinate]",inhibition of AA-induced Ca2+ influx,PMNs [1],insensitive to 2-APB
same,inhibition of CAT-induced Ca2+ entry,PMNs [1],completely blocked the entry of extracellular Ca^2+; also recorded: inhibits completely the calcium entry; also recorded: abolished the transient Ca^2+ influx induced by CHR or CAT similarly to 2-APB
same,inhibition of CHR-induced Ca2+ entry,PMNs [1],completely blocked the entry of extracellular Ca^2+; also recorded: inhibits completely the calcium entry; also recorded: abolished the transient Ca^2+ influx induced by CHR or CAT similarly to 2-APB
same,suppression of CMZ-induced Ca2+ influx,PMNs [1],significantly suppressed
same,suppression of W7-induced Ca2+ influx,PMNs [1],significantly suppressed
"Castestatin (SSMKLSFRARAYGFRGPGPQL; Catestatin; UniProt P10645 370-390, looked up)",Protein identified in PMN secretion (Protein name),"PMNs [3]; sample Castestatin_1, Mascot",Protein S100-A9 - Homo sapiens (Human); also recorded: Protein S100-A12 - Homo sapiens (Human)
same,Protein identified in PMN secretion (Protein name),"PMNs [3]; sample Castestatin_6, Mascot","Actin, cytoplasmic 1 - Homo sapiens (Human)"
same,Protein identified in PMN secretion (Protein name),"PMNs [3]; sample Castestatin_7, Mascot","Actin, cytoplasmic 1 - Homo sapiens (Human)"
same,Protein identified in PMN secretion (Protein name),"PMNs [3]; sample Castestatin_8, Mascot",Hemoglobin subunit alpha - Homo sapiens (Human)
same,Protein identified in PMN secretion (Protein name),"PMNs [3]; sample Castestatin_9, Mascot",Hemoglobin subunit beta - Homo sapiens (Human)
same,Protein identified in PMN secretion (Protein name),"PMNs [3]; sample Castestatin_10, Mascot",High mobility group protein B2 - Homo sapiens (Human); also recorded: Hemoglobin subunit beta - Homo sapiens (Human)
same,Protein identified in PMN secretion (Protein name),"PMNs [3]; sample Castestatin_11, Mascot",Heterogeneous nuclear ribonucleoproteins A2/B1 - Homo sapiens (Human); also recorded: Phosphatidylethanolamine-binding protein 1 - Homo sapiens (Human); also recorded: Heterogeneous nuclear ribonucleoprotein A1 - Homo sapiens (Human); also recorded: Filamin-A - Homo sapiens (Human); also recorded: Low affinity immunoglobulin gamma Fc region receptor III-B precursor - Homo sapiens (Human); also recorded: Alpha-1-acid glycoprotein 1 precursor - Homo sapiens (Human); also recorded: Haptoglobin precursor [Contains: Haptoglobin alpha chain; Haptoglobin beta chain] - Homo sapiens (Human); also recorded: SH3 domain-binding glutamic acid-rich-like protein - Homo sapiens (Human)
"ALQGAKERTHQQ [CgA65–76, the natural peptide CgA65–76 (…)]",Ca2+ influx,human PMNs,failed to affect the Ca^2+ influx
scrambled CAT: scrambled CAT peptide (SLPRRQLPSSAGMRGGKFAYF),interaction with CaM by SPR,calmodulin (CaM),inactive

# Source: PMC2639705, “Two Chromogranin A-Derived Peptides Induce Calcium Entry in Human Neutrophils by Calmodulin-Regulated Calcium Independent Phospholipase A2” (PLoS ONE, 2009)
